Measurements taken from ChEMBL document CHEMBL5241053, “Discovery of novel steroidal-chalcone hybrids with potent and selective activity against triple-negative breast cancer” (Bioorg Med Chem, 2020).
Active and inactive are the calls of the source. The rule behind the calls is not given here.

Legend:
MDA-MB-231 [1] = test: Antiproliferative activity against human MDA-MB-231 cells assessed as cell growth inhibition incubated for 4 hrs by MTT assay; assay type: functional, cell-based; details: MDA-MB-231, 4 h
HT-29 = test: Antiproliferative activity against human HT-29 cells assessed as cell growth inhibition incubated for 4 hrs by MTT assay; assay type: functional, cell-based; details: HT-29, 4 h
A549 = test: Antiproliferative activity against human A549 cells assessed as cell growth inhibition incubated for 4 hrs by MTT assay; assay type: functional, cell-based; details: A549, 4 h
[2] = Selectivity index, ratio of IC50 for antiproliferative activity against human HT-29 cells to IC50 for antiproliferative activity against human MDA-MB-231 cells; assay type: functional
[3] = Selectivity index, ratio of IC50 for antiproliferative activity against human A549 cells to IC50 for antiproliferative activity against human MDA-MB-231 cells; assay type: functional
MDA-MB-231 [4] = test: Inhibition of colony formation in human MDA-MB-231 cells upto 5 uM for 9 days by crystal violet staining based assay; assay type: functional, cell-based; details: time 9.0 day

Compound: COc1ccc(/C=C/C(=O)NCCNC(=O)[C@H]2CC[C@H]3[C@@H]4CCC5=CC(=O)CC[C@]5(C)[C@H]4CC[C@]23C)cc1
- IC50 (MDA-MB-231 [1]): 22.2 µM
- IC50 (HT-29): 35 µM
- IC50 (A549): > 40 µM
- Ratio IC50 [2]: 1.6
- Ratio IC50 [3]: >1.8

Compound: C[C@]12CC[C@H]3[C@@H](CCC4=CC(=O)C=C[C@@]43C)[C@@H]1CC[C@@H]2C(=O)NCCNC(=O)/C=C/c1ccc([N+](=O)[O-])cc1
- IC50 (MDA-MB-231 [1]): 22.6 µM
- IC50 (HT-29): > 40 µM
- IC50 (A549): > 40 µM
- Ratio IC50 [2]: >1.8
- Ratio IC50 [3]: >1.8

Compound: C[C@]12CC[C@H]3[C@@H](CCC4=CC(=O)CC[C@@]43C)[C@@H]1CC[C@@H]2C(=O)NCCNC(=O)/C=C/c1ccc(C(F)(F)F)cc1
- IC50 (MDA-MB-231 [1]): 9.21 µM
- IC50 (HT-29): 34.2 µM
- IC50 (A549): > 40 µM
- Ratio IC50 [2]: 3.7
- Ratio IC50 [3]: >4.3

Compound: COc1ccccc1/C=C/C(=O)NCCNC(=O)[C@H]1CC[C@H]2[C@@H]3CCC4=CC(=O)C=C[C@]4(C)[C@H]3CC[C@]12C
- IC50 (MDA-MB-231 [1]): 0.52 µM
- IC50 (HT-29): 16.8 µM
- IC50 (A549): 29.9 µM
- Ratio IC50 [2]: 32.3
- Ratio IC50 [3]: 57.6
- inhibition (MDA-MB-231 [4]): Active

Compound: C[C@]12CC[C@H]3[C@@H](CCC4=CC(=O)CC[C@@]43C)[C@@H]1CC[C@@H]2C(=O)NCCNC(=O)/C=C/c1ccccc1
- IC50 (MDA-MB-231 [1]): 10.3 µM
- IC50 (HT-29): 9.49 µM
- IC50 (A549): 27.3 µM
- Ratio IC50 [2]: 1.1
- Ratio IC50 [3]: 2.7

Compound: O=c1[nH]cc(F)c(=O)[nH]1 [FLUOROURACIL]
- IC50 (MDA-MB-231 [1]): 9.89 µM
- IC50 (HT-29): 12.7 µM
- IC50 (A549): 14.5 µM
- Ratio IC50 [2]: 1.3
- Ratio IC50 [3]: 1.5

Compound: CC(C)(C)OC(=O)NCCNC(=O)[C@H]1CC[C@H]2[C@@H]3CCC4=CC(=O)C=C[C@]4(C)[C@H]3CC[C@]12C
- IC50 (MDA-MB-231 [1]): > 40 µM
- IC50 (HT-29): > 40 µM
- IC50 (A549): > 40 µM

Compound: O=C(/C=C/c1ccccc1)c1ccccc1 [CHALCONE]
- IC50 (MDA-MB-231 [1]): 42.8 µM
- IC50 (HT-29): 45.9 µM
- IC50 (A549): 69.2 µM

Compound: COc1ccc(/C=C/C(=O)NCCNC(=O)[C@H]2CC[C@H]3[C@@H]4CCC5=CC(=O)CC[C@]5(C)[C@H]4CC[C@]23C)cc1OC
- IC50 (MDA-MB-231 [1]): 15.2 µM
- IC50 (HT-29): 14.7 µM
- IC50 (A549): 35.1 µM
- Ratio IC50 [2]: 1
- Ratio IC50 [3]: 2.3

Compound: C[C@]12CC[C@H]3[C@@H](CCC4=CC(=O)C=C[C@@]43C)[C@@H]1CC[C@@H]2C(=O)NCCNC(=O)/C=C/c1cccc([N+](=O)[O-])c1
- IC50 (MDA-MB-231 [1]): 13.7 µM
- IC50 (HT-29): > 40 µM
- IC50 (A549): 34.2 µM
- Ratio IC50 [2]: >2.9
- Ratio IC50 [3]: 2.5

Compound: C[C@]12CC[C@H]3[C@@H](CCC4=CC(=O)C=C[C@@]43C)[C@@H]1CC[C@@H]2C(=O)NCCNC(=O)/C=C/c1ccccc1
- IC50 (MDA-MB-231 [1]): 5.82 µM
- IC50 (HT-29): 12.7 µM
- IC50 (A549): 26.9 µM
- Ratio IC50 [2]: 2.2
- Ratio IC50 [3]: 4.6

Compound: C[C@]12CC[C@H]3[C@@H](CCC4=CC(=O)CC[C@@]43C)[C@@H]1CC[C@@H]2C(=O)NCCNC(=O)/C=C/c1ccc(Cl)cc1
- IC50 (MDA-MB-231 [1]): 8.19 µM
- IC50 (HT-29): 15 µM
- IC50 (A549): 35.7 µM
- Ratio IC50 [2]: 1.8
- Ratio IC50 [3]: 4.3

Compound: C[C@]12CC[C@H]3[C@@H](CCC4=CC(=O)C=C[C@@]43C)[C@@H]1CC[C@@H]2C(=O)NCCNC(=O)/C=C/c1ccc(Cl)cc1
- IC50 (MDA-MB-231 [1]): > 40 µM
- IC50 (HT-29): > 40 µM
- IC50 (A549): 38.7 µM

Compound: C[C@]12CC[C@H]3[C@@H](CCC4=CC(=O)C=C[C@@]43C)[C@@H]1CC[C@@H]2C(=O)NCCNC(=O)/C=C/c1ccc(C(F)(F)F)cc1
- IC50 (MDA-MB-231 [1]): 12.5 µM
- IC50 (HT-29): > 40 µM
- IC50 (A549): 38.1 µM
- Ratio IC50 [2]: >3.2
- Ratio IC50 [3]: 3.2

Compound: COc1cc(/C=C/C(=O)NCCNC(=O)[C@H]2CC[C@H]3[C@@H]4CCC5=CC(=O)CC[C@]5(C)[C@H]4CC[C@]23C)cc(OC)c1OC
- IC50 (MDA-MB-231 [1]): > 40 µM
- IC50 (HT-29): > 40 µM
- IC50 (A549): > 40 µM

Compound: COc1ccc(/C=C/C(=O)NCCNC(=O)[C@H]2CC[C@H]3[C@@H]4CCC5=CC(=O)C=C[C@]5(C)[C@H]4CC[C@]23C)cc1
- IC50 (MDA-MB-231 [1]): 11.5 µM
- IC50 (HT-29): > 40 µM
- IC50 (A549): 29.6 µM
- Ratio IC50 [2]: >3.5
- Ratio IC50 [3]: 2.6

Compound: CC(C)(C)OC(=O)NCCNC(=O)[C@H]1CC[C@H]2[C@@H]3CCC4=CC(=O)CC[C@]4(C)[C@H]3CC[C@]12C
- IC50 (MDA-MB-231 [1]): 24.8 µM
- IC50 (HT-29): > 40 µM
- IC50 (A549): > 40 µM

Compound: COc1cc(/C=C/C(=O)NCCNC(=O)[C@H]2CC[C@H]3[C@@H]4CCC5=CC(=O)C=C[C@]5(C)[C@H]4CC[C@]23C)cc(OC)c1OC
- IC50 (MDA-MB-231 [1]): > 40 µM
- IC50 (HT-29): > 40 µM
- IC50 (A549): 35.9 µM

Compound: C[C@]12CC[C@H]3[C@@H](CCC4=CC(=O)CC[C@@]43C)[C@@H]1CC[C@@H]2C(=O)NCCNC(=O)/C=C/c1cccc([N+](=O)[O-])c1
- IC50 (MDA-MB-231 [1]): 11.2 µM
- IC50 (HT-29): 25.4 µM
- IC50 (A549): 17.7 µM
- Ratio IC50 [2]: 2.3
- Ratio IC50 [3]: 1.6

Compound: C[C@]12CC[C@H]3[C@@H](CCC4=CC(=O)CC[C@@]43C)[C@@H]1CC[C@@H]2C(=O)NCCNC(=O)/C=C/c1ccc([N+](=O)[O-])cc1
- IC50 (MDA-MB-231 [1]): 12 µM
- IC50 (HT-29): 27.8 µM
- IC50 (A549): > 40 µM
- Ratio IC50 [2]: 2.3
- Ratio IC50 [3]: >3.3

Compound: COc1ccc(/C=C/C(=O)NCCNC(=O)[C@H]2CC[C@H]3[C@@H]4CCC5=CC(=O)C=C[C@]5(C)[C@H]4CC[C@]23C)cc1OC
- IC50 (MDA-MB-231 [1]): 5.75 µM
- IC50 (HT-29): > 40 µM
- IC50 (A549): > 40 µM
- Ratio IC50 [2]: >7
- Ratio IC50 [3]: >7
